Results reported in US7691844B2, “Nonpeptide substituted spirobenzoazepines as vasopressin antagonists” (Ortho-McNeil Pharmaceutical, Inc., priority 2000, dated 2010).

Assays:
V1a = V1a (Homo sapiens, UniProt P37288); assay: In-vitro receptor binding assay (3H-arginine-8-vasopressin), V1a; conditions: for Receptor Binding V1a (% Inh. @ concentration in μM): @ 10 μM
Procedure: (§1) (A) In-Vitro Binding Assay […] The reaction plates are allowed to sit at room temperature for one hour. The samples are filtered through Unifilter GF/C plates (presoaked in 0.3 polyethyleneimine). The plates are washed 5 times with cold physiological saline containing 0.05% Tween 20. After drying, the bottom of the filter plates are sealed and 0.025 ml of Microscint-20 is added to each filter. The top of the plate is sealed, and the plate is counted. Non-specific binding is determined by the addition of 1.25 μM […]-vasopressin in those wells. % Inh. is calculated as follows: […]

human V2 receptor = human V2 receptor (Homo sapiens, UniProt P30518); assay: In-vitro receptor binding assay (3H-arginine-8-vasopressin), V2; conditions: for Receptor Binding V2 (% Inh. @ concentration in μM): @ 10 μM
Procedure: as §1

[1] = read-out: Receptor Binding V2 (% Inh. @ concentration in μM)
[2] = read-out: Receptor Binding V1a (% Inh. @ concentration in μM)

Sequence of human V2 receptor (P30518 whole entry): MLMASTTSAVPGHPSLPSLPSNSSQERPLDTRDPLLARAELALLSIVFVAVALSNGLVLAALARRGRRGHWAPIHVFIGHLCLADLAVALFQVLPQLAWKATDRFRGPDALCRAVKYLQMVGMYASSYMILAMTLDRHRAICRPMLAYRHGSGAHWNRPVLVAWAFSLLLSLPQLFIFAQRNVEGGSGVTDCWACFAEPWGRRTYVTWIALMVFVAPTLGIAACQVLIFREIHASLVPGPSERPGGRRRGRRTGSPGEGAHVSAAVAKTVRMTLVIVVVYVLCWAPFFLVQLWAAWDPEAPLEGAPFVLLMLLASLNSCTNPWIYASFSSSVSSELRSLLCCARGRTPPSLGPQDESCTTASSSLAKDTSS
Sequence of V1a (P37288 whole entry): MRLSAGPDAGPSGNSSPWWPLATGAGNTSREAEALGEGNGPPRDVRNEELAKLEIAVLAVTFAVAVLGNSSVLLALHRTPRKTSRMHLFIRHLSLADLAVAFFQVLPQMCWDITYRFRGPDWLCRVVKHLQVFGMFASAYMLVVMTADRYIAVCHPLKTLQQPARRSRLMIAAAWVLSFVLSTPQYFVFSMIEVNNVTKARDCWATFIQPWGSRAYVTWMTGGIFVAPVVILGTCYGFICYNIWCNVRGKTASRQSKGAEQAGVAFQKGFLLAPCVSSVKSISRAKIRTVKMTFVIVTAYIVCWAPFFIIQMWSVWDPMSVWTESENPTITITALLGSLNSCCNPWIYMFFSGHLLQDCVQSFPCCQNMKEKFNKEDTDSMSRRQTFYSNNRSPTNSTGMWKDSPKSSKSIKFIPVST

Row | IC50 (V1a) [µM] | inhibition at 0.1 µM (V1a; [2]) [%] | Compound | other results
1 | 0.046 | – | COC(=O)C1=CC2(CC1)CCN(C(=O)c1ccc(NC(=O)c3cc(F)ccc3F)cc1)c1ccccc1C2 (stereo not shown) [Compound 218] | inhibition at 0.2 µM (human V2 receptor; @ 0.2 μM, read-out: Receptor Binding V2 (% Inh. @ concentration in μM)): 23%
2 | – | – | CON(C)Cc1ccn(-c2ccc(C(=O)N3CCC4(C=C(C(=O)NCCN(C)C)CC4)Cc4ccccc43)cc2)c1 (stereo not shown) [Compound 210] | inhibition at 0.125 µM (V1a; @ 0.125 μM, read-out: Receptor Binding V1a (% Inh. @ concentration in μM)): 6%; inhibition at 1 µM (human V2 receptor; [1]): 22%
3 | 0.016 | – | Cc1ccc(F)cc1C(=O)Nc1ccc(C(=O)N2CCC3(C=C(C(=O)NCCCN4CCCC4)CC3)Cc3ccccc32)cc1 (stereo not shown) [Compound 157] | IC50 (human V2 receptor): 0.038 µM
4 | 1.1 | – | O=C(c1ccc(Cl)cc1)N1CCC2(C=CCCC2)Cc2ccccc21 (stereo not shown) [Compound 39] | IC50 (human V2 receptor): 10 µM
5 | 0.011 | – | Cc1ccc(F)cc1C(=O)Nc1ccc(C(=O)N2CCC3(C=C(C(=O)NCCN4CCCCC4)CC3)Cc3ccccc32)cc1 (stereo not shown) [Compound 160] | IC50 (human V2 receptor): 0.082 µM
6 | – | – | O=C(c1cc(C(F)(F)F)cc(C(F)(F)F)c1)N1CCC2(C=CCCC2)Cc2ccccc21 (stereo not shown) [Compound 50] | Receptor Binding V1a (% Inh. @ concentration in μM) (V1a): 20% @ 10; Receptor Binding V2 (% Inh. @ concentration in μM) (human V2 receptor): 26% @ 10
7 | 0.046 | – | O=C(Nc1ccc(C(=O)N2CCC3(C=CCCC3)Cc3ccccc32)cc1)c1c(Cl)cccc1Cl (stereo not shown) [Compound 102] | IC50 (human V2 receptor): 0.159 µM
8 | 0.3 | – | COc1cc(-n2ccc(C=O)c2)ccc1C(=O)N1CCC2(C=C(C(=O)NCCN(C)C)CC2)Cc2ccccc21 (stereo not shown) [Compound 195] | inhibition at 1 µM (human V2 receptor; [1]): 18%
9 | – | 44 | CN(C)CCNC(=O)C1=CC2(CC1)CCN(C(=O)c1ccc(-n3ccc(C=O)c3)cc1)c1ccccc1C2 (stereo not shown) [Compound 201] | inhibition at 0.1 µM (human V2 receptor; @ 0.1 μM, read-out: Receptor Binding V2 (% Inh. @ concentration in μM)): 0%
10 | 0.042 | – | Cc1ccn(-c2ccc(C(=O)N3CCC4(C=CCCC4)Cc4ccccc43)cc2-n2ccc(C)n2)n1 (stereo not shown) [Compound 151] | inhibition at 1 µM (human V2 receptor; [1]): 20%
11 | 0.02 | – | O=C(Nc1ccc(C(=O)N2CCC3(C=CCCC3)Cc3ccccc32)cc1)c1ccccc1 (stereo not shown) [Compound 67] | IC50 (human V2 receptor): 0.39 µM
12 | – | – | NCc1ccc(C(=O)N2CCC3(C=CCCC3)Cc3ccccc32)cc1 (stereo not shown) [Compound 42] | Receptor Binding V1a (% Inh. @ concentration in μM) (V1a): 0% @ 10; Receptor Binding V2 (% Inh. @ concentration in μM) (human V2 receptor): 24% @ 10
13 | 0.56 | – | COC(=O)c1ccc(C(=O)N2Cc3ccccc3CC3(C=CCCC3)C2)cc1 (stereo not shown) [Compound 149] | inhibition at 1 µM (human V2 receptor; [1]): 54%
14 | 0.074 | – | Cc1ccc(C(=O)Nc2ccc(C(=O)N3CCC4(C=CCCC4)Cc4ccccc43)cc2)cc1 (stereo not shown) [Compound 87] | inhibition at 1 µM (human V2 receptor; [1]): 47%
15 | 0.03 | – | COc1ccccc1C(=O)Nc1ccc(C(=O)N2CCC3(C=CCCC3)Cc3ccccc32)cc1 (stereo not shown) [Compound 71] | IC50 (human V2 receptor): 0.2 µM
16 | 0.055 | – | Cc1ccn(-c2ccc(C(=O)N3CCC4(C=C(C(=O)NCCN(C)C)CC4)Cc4ccccc43)cc2)n1 (stereo not shown) [Compound 209] | inhibition at 1 µM (human V2 receptor; [1]): 43%
17 | – | 3 | COC(=O)C1=CC2(CC1)CCN(C(=O)c1cc(OC)c(OC)c(OC)c1)c1ccccc1C2 (stereo not shown) [Compound 203] | –
18 | – | 64 | COC(=O)C1=CC2(CC1)CCN(C(=O)c1ccc(-n3ccc(C(C)=O)c3)c(OC)c1)c1ccccc1C2 (stereo not shown) [Compound 215] | –
19 | 0.65 | – | O=C(c1ccccc1)N1CCC2(C=CCCC2)Cc2ccccc21 (stereo not shown) [Compound 34] | –
20 | – | 0 | COc1cc(-n2ccc(C(=O)O)c2)ccc1C(=O)N1CCC2(C=C(C(=O)NCCN(C)C)CC2)Cc2ccccc21 (stereo not shown) [Compound 200] | –
21 | – | 6 | COc1cc(C(=O)N2CCC3(C=C(C(=O)N4CCN(C)CC4)CC3)Cc3ccccc32)ccc1-n1ccc(C(C)=O)c1 (stereo not shown) [Compound 216] | –
22 | – | 42 | Cc1ccn(-c2ccc(C(=O)N3CCC4(C=C(C(=O)N5CCN(C)CC5)CC4)Cc4ccccc43)cc2)n1 (stereo not shown) [Compound 217] | –
23 | – | 48 | Cc1ccn(-c2ccc(C(=O)N3CCC4(C=C(C(=O)N5CCN(C)CC5)CC4)Cc4ccccc43)cc2N(C)C)n1 (stereo not shown) [Compound 214] | –
24 | – | 9 | CCOC(=O)Oc1c(OC)cc(C(=O)N2CCC3(C=CCCC3)Cc3ccccc32)cc1OC (stereo not shown) [Compound 206, 4-(4-Ethoxycarboyloxy-3,5-dimethoxybenzoyl)-4-aza-[6,5]-spiro-[5,6]-benzododec-2′-ene] | –
25 | – | 0 | CCOC(=O)Oc1c(OC)cc(C(=O)N2CCC3(C=C(C(=O)OC)CC3)Cc3ccccc32)cc1OC (stereo not shown) [Compound 204] | –
26 | – | – | O=C(O)C1=CC2(CC1)CCN(C(=O)c1ccc(NC(=O)c3cc(F)ccc3F)cc1)c1ccccc1C2 (stereo not shown) [Compound 219] | inhibition at 0.2 µM (V1a; @ 0.2 μM, read-out: Receptor Binding V1a (% Inh. @ concentration in μM)): 48%
27 | 0.009 | – | CN(C)CCCNC(=O)C1=CC2(CC1)CCN(C(=O)c1ccc(NC(=O)c3cc(F)ccc3F)cc1)c1ccccc1C2 (stereo not shown) [Compound 221] | –
